From patent publication US11236102B2, “Oxabicycloheptane prodrugs” (Lixte Biotechnology, Inc., priority 2015, dated 2022)
Entries after “also recorded” stand apart in the source; their conditions may differ.

Experiments:
[1] = Pharmacokinetic study of 100 (iv 0.5, 1.0, 1.5 mg/kg) in SD rats: 100 and endothal in plasma, liver, brain; assay type: in vivo; conditions: for Endothal brain concentration / Endothal plasma concentration: SD rats
Protocol: 100 was administrated via iv route at 0.5, 1.0 and 1.5 mg/kg into SD rats. The blood, liver and brain tissue samples were collected at predetermined times from rats.
Twelve (12) female SD rats per group were dosed by iv with 100. The rats were fasted overnight prior to dosing, with free access to water. Foods were withheld for 2 hours post-dose. Blood, liver and brain tissue samples in two animals each group were collected at each time point, within 10% of the scheduled time for each time point. Two extra animals were used for analytic method development. Blood (>0.3 mL) were collected via aorta abdominalis in anaesthetic animals into tubes containing heparin at 15 min, 1, 2, 6, 10 and 24 hours after iv administration. Liver and brain tissues were collected immediately after animal death. The liver and brain tissues were excised and rinsed with cold saline to avoid blood residual. Upon collection, each sample was placed on ice and the blood samples were subsequently centrifuged (4° C., 11000 rpm, 5 min) to separate plasma. The obtained plasma, liver and brain tissue samples were stored at −70° C. until LC-MS/MS analysis.
AUC0-∞ (AUCINF) is the area under the plasma concentration-time curve with last concentration extrapolated based on the elimination rate constant.

[2] = Pharmacokinetic study of 157 (iv, po) in SD rats: 157 and endothal in plasma, liver, brain; assay type: in vivo; design: Tmax: dose or concentration left out as unconfirmed; conditions: for Endothal plasma concentration: individual rats
Protocol: The blood, liver and brain tissue samples were collected at predetermined times from rats. […] Compound were diluted shortly before use in 4% sodium bicarbonate for sterile injection (this is the standard pediatric solution of NaHCO3 with a pH of about 8.5).
Compound 153 was freshly prepared by diluting the drugs shortly before use in 4% sodium bicarbonate for sterile injection (this is the standard pediatric solution of NaHCO3 with a pH of about 8.5). The final concentrations of 153 solutions were 0.25 mg/mL. The 153 solutions were administered via iv or po route at dose volume of 5 ml/kg according to the latest body weight. Compound 157 was freshly prepared by diluting the drugs shortly before use in 4% sodium bicarbonate for sterile injection (this is the standard pediatric solution of NaHCO3 with a pH of about 8.5). […] The 157 solutions were administered via iv or po route at dose volume of 5 ml/kg according to the latest body weight.
Twelve (12) female SD rats per group were dosed by iv with 153 or 157. The rats were fasted overnight prior to dosing, with free access to water. Foods were withheld for 2 hours post-dose. Blood, liver and brain tissue samples in two animals each group were collected at each time point, within 10% of the scheduled time for each time point. Two extra animals were used for analytic method development.
Blood (>0.3 mL) were collected via aorta abdominalis in anaesthetic animals into tubes containing heparin at 15 min, 1, 2, 6, 10 and 24 hours after iv administration. Liver and brain tissues were collected immediately after animal death. The liver and brain tissues were excised and rinsed with cold saline to avoid blood residual. Upon collection, each sample was placed on ice and the blood samples were subsequently centrifuged (4° C., 11000 rpm, 5 min) to separate plasma.
The obtained plasma, liver and brain tissue samples were stored at −70° C. until LC-MS/MS analysis.
Two (2) female SD rats per group were dosed by po with 153 or 157. The rats were fasted overnight prior to dosing, with free access to water. Foods were withheld for 2 hours post-dose. Blood samples (>0.3 mL) were collected via aorta abdominalis in anaesthetic animals into tubes containing heparin at 30 min, 1, 2, 6, 10 and 24 hours after po administration.
To each sample, 30 μL IS-D (for blank samples, 20 μL acetonitrile:water (1:1) was added) and 300 ul acetonitrile was added. The sample mixture was vortexed for approximately 3 min. After centrifugation at 10000 rpm for 5 min at 4° C., 100 μL of the upper layer was transferred to a new tube and added 200 μL 0.4% formic acid in water (pH6.0). The mixture was vortexed for approximately 3 min before injected onto the LC/MS/MS system for analysis.
On the day of the assay, the frozen liver and brain samples were thawed unassisted at room temperature. An about 200 mg weighed sample of each thawed tissue was placed into a plastic tube with water (0.6 mL) to facilitate homogenization. Tissue processing was conducted using a homogenizer for approximately 1 min, […] homogenate was transferred into a fresh Eppendorf tube. To each tube, 50 μL IS-D was added and mixed. Then 500 ul acetonitrile was added and the sample mixture was vortexed for approximately 3 min. After centrifugation at 10000 rpm for 5 min at 4° C., 100 μL of the upper layer was transferred to a new tube and evaporate the supernatant to dryness at 35° C. Reconstitute the residue with 200 μL of 0.4% formic acid in water (pH 6.0), and vortex for 3 min, submit for LC-MS/MS analysis.
Frozen unknown plasma samples were completely thawed at room temperature and vortexed thoroughly. With a pipette, 50 μL of plasma was transferred into a 2.0 mL Eppendorf tube. 50 μL of 0.1N HCl and 800 μL ethyl acetate were added into each sample. The sample mixture was vortexed for approximately 3 min.

[3] = 100 iv 0.5 mg/kg, 24 hr, individual rats
[4] = female, Sprague-Dawley, rat, in vivo, iv, 1.5 mg/kg

Question: What does the source list for `O=C(O)C1C2CCC(O2)C1C(=O)O` (stereo not shown) [Endothal, 7-oxabicyclo[2.2.1]heptane-2,3-dicarboxylic acid]?
Answer: Endothal brain concentration ([1]; 100 iv 0.5 mg/kg, 0.25 hr, individual rats): BLQ; Endothal brain concentration ([1]; 100 iv 0.5 mg/kg, 0.25 hr, mean): BLQ; Endothal brain concentration ([1]; 100 iv 0.5 mg/kg, 1 hr, individual rats): BLQ; Endothal brain concentration ([1]; 100 iv 0.5 mg/kg, 1 hr, mean): BLQ; Endothal brain concentration ([1]; 100 iv 0.5 mg/kg, 2 hr, individual rats): BLQ; Endothal brain concentration ([1]; 100 iv 0.5 mg/kg, 2 hr, mean): BLQ; Endothal brain concentration ([1]; 100 iv 0.5 mg/kg, 6 hr, individual rats): BLQ; Endothal plasma concentration ([1]; 100 iv 0.5 mg/kg, 6 hr, individual rats, 0.5 mg/kg): BLQ; Endothal brain concentration ([1]; 100 iv 0.5 mg/kg, 6 hr, mean): BLQ; Endothal brain concentration ([1]; 100 iv 0.5 mg/kg, 10 hr, individual rats): BLQ; Endothal brain concentration ([1]; 100 iv 0.5 mg/kg, 10 hr, mean): BLQ; Endothal brain concentration [1, 3]: BLQ; Endothal plasma concentration [1, 3]: BLQ; Endothal brain concentration ([1]; 100 iv 0.5 mg/kg, 24 hr, mean): BLQ; Endothal plasma concentration ([1]; 100 iv 0.5 mg/kg, 24 hr, mean): BLQ; Endothal brain concentration ([1]; 100 iv 1.0 mg/kg, 0.25 hr, individual rats): BLQ; Endothal brain concentration ([1]; 100 iv 1.0 mg/kg, 0.25 hr, mean): BLQ; Endothal brain concentration ([1]; 100 iv 1.0 mg/kg, 1 hr, individual rats): BLQ; Endothal brain concentration ([1]; 100 iv 1.0 mg/kg, 1 hr, mean): BLQ; Endothal brain concentration ([1]; 100 iv 1.0 mg/kg, 2 hr, individual rats): BLQ; Endothal brain concentration ([1]; 100 iv 1.0 mg/kg, 2 hr, mean): BLQ; Endothal brain concentration ([1]; 100 iv 1.0 mg/kg, 6 hr, individual rats): BLQ; Endothal brain concentration ([1]; 100 iv 1.0 mg/kg, 6 hr, mean): BLQ; Endothal brain concentration ([1]; 100 iv 1.0 mg/kg, 10 hr, individual rats): BLQ; Endothal brain concentration ([1]; 100 iv 1.0 mg/kg, 10 hr, mean): BLQ; Endothal brain concentration ([1]; 100 iv 1.0 mg/kg, 24 hr, individual rats): BLQ; Endothal brain concentration ([1]; 100 iv 1.0 mg/kg, 24 hr, mean): BLO; Endothal brain concentration ([1]; 100 iv 1.5 mg/kg, 0.25 hr, individual rats): BLQ; Endothal brain concentration ([1]; 100 iv 1.5 mg/kg, 0.25 hr, mean): BLQ; Endothal brain concentration ([1]; 100 iv 1.5 mg/kg, 1 hr, individual rats): BLQ; Endothal brain concentration ([1]; 100 iv 1.5 mg/kg, 1 hr, mean): BLQ; Endothal brain concentration ([1]; 100 iv 1.5 mg/kg, 2 hr, individual rats): BLQ; Endothal brain concentration ([1]; 100 iv 1.5 mg/kg, 2 hr, mean): BLQ; Endothal brain concentration ([1]; 100 iv 1.5 mg/kg, 6 hr, individual rats): BLQ; Endothal brain concentration ([1]; 100 iv 1.5 mg/kg, 6 hr, mean): BLQ; Endothal brain concentration ([1]; 100 iv 1.5 mg/kg, 10 hr, individual rats): BLQ; Endothal brain concentration ([1]; 100 iv 1.5 mg/kg, 10 hr, mean): BLQ; Endothal brain concentration ([1]; 100 iv 1.5 mg/kg, 24 hr, individual rats): BLQ; Endothal brain concentration ([1]; 100 iv 1.5 mg/kg, 24 hr, mean): BLQ; half-life ([1]; Sprague-Dawley, rat, in vivo): ~6 h; detectability in brain samples ([1]; endothal after single iv 100 at 0.5, 1.0 and 1.5 mg/kg): not detectable; also recorded: undetectable; AUClast in plasma [1, 4]: 546 to 4476 ng·h/mL; Cmax [1, 4]: 349 to 2960 ng/g; T1/2 in liver [1, 4]: 4.57 to 10.1 h; T1/2 in plasma [1, 4]: 6.25 to 7.06 h; mean Cmax in plasma [1, 4]: 577 to 1230 ng/mL; AUClast in liver ([1]; rat, in vivo, iv, 1.5 mg/kg): 2598 to 18434 ng·h/g; detectability in brain samples ([2]; endothal after single iv 157 at 1.5 mg/kg, 1.5 mg/kg): not detectable; also recorded: undetectable; Tmax ([2]; female, SD, rat, in vivo, po): 2 h; AUC [2, 4]: 374 ng·h/mL; Cmax [2, 4]: 3720 ng/mL; Endothal plasma concentration ([2]; iv administration of 157, 10 hr): BLQ; Endothal plasma concentration ([2]; iv administration of 157, 24 hr): BLQ; Endothal plasma concentration ([2]; po administration of 157, 10 hr): BLQ; AUClast in liver ([2]; rat, in vivo, iv, 1.5 mg/kg): 15025 ng·h/g
